# In patent US11254668B2, “Pyrazolo[1,5-A]pyrazin-4-yl and related derivatives” (Pfizer Inc., priority 2017, dated 2022):
# Read-outs that look alike come from different tables or passages of the source.
# Assays:
# Type in all cases: biochemical
# JAK2 = JAK2 (Homo sapiens (Human), UniProt O60674); assay: JAK Caliper Enzyme Assay at 1 mM ATP, JAK2
# In short: (§1)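 Inhibition is measured as reduced phosphorylation of a synthetic peptide by the recombinant human kinase domain at 1 mM ATP. Conditions give 20–30% conversion at room temperature before EDTA quench, and on-chip separation of labelled substrate and product yields percent conversion for dose–response plotting.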
# JAK3 = JAK3 (Homo sapiens (Human), UniProt P52333); assay: JAK Caliper Enzyme Assay at 1 mM ATP, JAK3
# Sequence of JAK3 (P52333 822-1111): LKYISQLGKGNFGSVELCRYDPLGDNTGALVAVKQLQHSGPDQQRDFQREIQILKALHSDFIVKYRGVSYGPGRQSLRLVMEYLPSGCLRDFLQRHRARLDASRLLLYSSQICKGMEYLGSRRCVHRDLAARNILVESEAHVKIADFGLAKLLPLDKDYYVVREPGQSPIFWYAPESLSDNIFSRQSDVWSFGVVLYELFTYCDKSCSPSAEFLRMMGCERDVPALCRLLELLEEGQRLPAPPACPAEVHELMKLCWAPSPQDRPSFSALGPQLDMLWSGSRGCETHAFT
# In short: (§2)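 Recombinant human kinase domains phosphorylate a fluorescent synthetic peptide at 1 mM ATP, room temperature, with enzyme and time tuned for 20-30% conversion; EDTA-stopped. Product/substrate separated by microfluidic mobility shift; percent effect versus DMSO and positive controls fitted to IC50 (nM).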
# TYK2 = TYK2 (Homo sapiens (Human), UniProt P29597); assay: JAK Caliper Enzyme Assay at 1 mM ATP, TYK2
# Sequence of TYK2 (P29597 897-1176): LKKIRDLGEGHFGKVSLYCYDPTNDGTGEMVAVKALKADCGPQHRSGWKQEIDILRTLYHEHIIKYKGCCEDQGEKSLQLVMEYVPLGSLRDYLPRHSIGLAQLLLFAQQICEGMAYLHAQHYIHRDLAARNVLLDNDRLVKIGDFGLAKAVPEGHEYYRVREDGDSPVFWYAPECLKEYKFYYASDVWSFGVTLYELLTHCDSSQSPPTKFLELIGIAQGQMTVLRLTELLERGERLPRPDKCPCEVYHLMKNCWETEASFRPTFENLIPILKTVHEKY
# In short: as §1
# JAK1 = JAK1 (Homo sapiens (Human), UniProt P23458); assay: JAK Caliper Enzyme Assay at 1 mM ATP, JAK1
# Sequence of JAK1 (P23458 875-1153): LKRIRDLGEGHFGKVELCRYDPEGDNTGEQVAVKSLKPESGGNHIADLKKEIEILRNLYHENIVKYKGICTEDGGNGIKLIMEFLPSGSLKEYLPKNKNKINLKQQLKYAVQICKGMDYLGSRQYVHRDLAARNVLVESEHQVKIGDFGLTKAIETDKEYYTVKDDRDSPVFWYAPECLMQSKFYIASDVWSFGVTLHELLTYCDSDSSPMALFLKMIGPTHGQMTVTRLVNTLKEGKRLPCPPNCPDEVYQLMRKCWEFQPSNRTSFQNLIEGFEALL
# In short: as §2
# Sequence of JAK2 (O60674 849-1124): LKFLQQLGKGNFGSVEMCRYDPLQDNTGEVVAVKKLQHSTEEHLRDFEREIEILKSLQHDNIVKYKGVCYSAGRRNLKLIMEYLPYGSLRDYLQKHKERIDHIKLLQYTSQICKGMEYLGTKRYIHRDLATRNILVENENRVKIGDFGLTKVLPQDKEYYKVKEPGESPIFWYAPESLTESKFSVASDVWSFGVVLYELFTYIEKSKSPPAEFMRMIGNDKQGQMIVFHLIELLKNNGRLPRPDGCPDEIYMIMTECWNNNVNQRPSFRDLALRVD
structure (smiles),measurement,setting,value
"Cn1ncc(-c2cc(-c3cnn([C@]4(CC#N)C[C@@H](C#N)C4)n3)c3cccnc3c2)c1C(N)=O [Example 334, 4-(5-{2-[cis-3-cyano-1-(cyanomethyl)cyclobutyl]-2H-1,2,3-triazol-4-yl}quinolin-7-yl)-1-methyl-1H-pyrazole-5-carboxamide]",IC50,JAK2,4710 nM
same,IC50,JAK3,> 10 µM
same,IC50,TYK2,736 nM
same,IC50,JAK1,> 10000 nM
"N#CC[C@]1(n2ncc(-c3cc(-c4cccc(C(=O)O)n4)cc4ncccc34)n2)C[C@@H](C#N)C1 [Example 371, 6-(5-{2-[trans-3-cyano-1-(cyanomethyl)cyclobutyl]-2H-1,2,3-triazol-4-yl}quinolin-7-yl)pyridine-2-carboxylic acid]",IC50,JAK2,1610 nM
same,IC50,JAK3,> 10 µM
same,IC50,TYK2,110 nM
same,IC50,JAK1,9280 nM
"N#CCC1(n2ncc(-c3cc(-c4ccccn4)cc4ncccc34)n2)CC(C#N)C1 (stereo not drawn) [Example 346, cis-3-(cyanomethyl)-3-{4-[7-(pyridin-2-yl)quinolin-5-yl]-2H-1,2,3-triazol-2-yl}cyclobutanecarbonitrile]",IC50,JAK2,123 nM
same,IC50,JAK3,> 10 µM
same,IC50,TYK2,23 nM
same,IC50,JAK1,1080 nM
"N#CCC1(n2ccc(-c3nc(-c4cn[nH]c4)cc4ncccc34)n2)CN(CC(F)(F)F)C1 [Example 74, [3-{3-[7-(1H-pyrazol-4-yl)-1,6-naphthyridin-5-yl]-1H-pyrazol-1-yl}-1-(2,2,2-trifluoroethyl)azetidin-3-yl]acetonitrile]",IC50,JAK2,267 nM
same,IC50,JAK3,9.65 µM
same,IC50,TYK2,13 nM
same,IC50,JAK1,217 nM
"Cn1cc(-c2cc3ncccc3c(-c3ccn(C4(CC#N)CN(CC#N)C4)n3)n2)cn1 [Example 100, 2,2′-(3-{3-[7-(1-methyl-1H-pyrazol-4-yl)-1,6-naphthyridin-5-yl]-1H-pyrazol-1-yl}azetidine-1,3-diyl)diacetonitrile]",IC50,JAK2,71 nM
same,IC50,JAK3,> 10 µM
same,IC50,TYK2,14 nM
same,IC50,JAK1,425 nM
"CC(C)(O)[C@H]1C[C@](CC#N)(n2ccc(-c3nc(-c4cc[nH]n4)cc4ncccc34)n2)C1 [Example 39, [trans-3-(2-hydroxypropan-2-yl)-1-{3-[7-(1H-pyrazol-3-yl)-1,6-naphthyridin-5-yl]-1H-pyrazol-1-yl}cyclobutyl]acetonitrile]",IC50,JAK2,2080 nM
same,IC50,JAK3,> 10 µM
same,IC50,TYK2,205 nM
same,IC50,JAK1,2770 nM
"Cn1ncc(-c2cc3ncccc3c(-c3ccn(C4(CC#N)CC(C#N)C4)n3)n2)c1N (stereo not drawn) [Example 141, trans-3-{3-[7-(5-amino-1-methyl-1H-pyrazol-4-yl)-1,6-naphthyridin-5-yl]-1H-pyrazol-1-yl}-3-(cyanomethyl)cyclobutanecarbonitrile]",IC50,JAK2,127 nM
same,IC50,JAK3,> 10 µM
same,IC50,TYK2,49 nM
same,IC50,JAK1,355 nM
"CS(=O)(=O)N1CC(CC#N)(n2ncc(-c3cc(-c4c[nH]c(=O)[nH]c4=O)cc4ncccc34)n2)C1 [Example 414, [3-{4-[7-(2,4-dioxo-1,2,3,4-tetrahydropyrimidin-5-yl)quinolin-5-yl]-2H-1,2,3-triazol-2-yl}-1-(methylsulfonyl)azetidin-3-yl]acetonitrile]",IC50,JAK2; JAK Caliper enzyme assay,6170 nM
same,IC50,JAK3; JAK Caliper enzyme assay,> 10 µM
same,IC50,TYK2; JAK Caliper enzyme assay,276 nM
same,IC50,JAK1; JAK Caliper enzyme assay,> 10000 nM
"N#CC[C@]1(n2ccc(-c3nc(-c4c[nH]nc4N)cc4ncccc34)n2)C[C@@H](C#N)C1 [Example 97, cis-3-{3-[7-(3-amino-1H-pyrazol-4-yl)-1,6-naphthyridin-5-yl]-1H-pyrazol-1-yl}-3-(cyanomethyl)cyclobutanecarbonitrile]",IC50,JAK2,6 nM
same,IC50,JAK3,0.735 µM
same,IC50,TYK2,5 nM
same,IC50,JAK1,12 nM
"Cc1cc(-c2cc3ncccc3c(-c3ccn(C4(CC#N)CN(S(C)(=O)=O)C4)n3)n2)ccn1 [Example 174, [3-{3-[7-(2-methylpyridin-4-yl)-1,6-naphthyridin-5-yl]-1H-pyrazol-1-yl}-1-(methylsulfonyl)azetidin-3-yl]acetonitrile]",IC50,JAK2,332 nM
same,IC50,JAK3,> 10 µM
same,IC50,TYK2,49 nM
same,IC50,JAK1,785 nM
"Cn1ncc(-c2cc3ncccc3c(-c3ccn(C4(CC#N)CN(S(C)(=O)=O)C4)n3)n2)c1N [Example 137, [3-{3-[7-(5-amino-1-methyl-1H-pyrazol-4-yl)-1,6-naphthyridin-5-yl]-1H-pyrazol-1-yl}-1-(methylsulfonyl)azetidin-3-yl]acetonitrile]",IC50,JAK2,207 nM
same,IC50,JAK3,> 10 µM
same,IC50,TYK2,52 nM
same,IC50,JAK1,586 nM
"CS(=O)(=O)N1CC(CC#N)(n2ccc(-c3nc(-c4cc(F)ccc4O)cc4ncccc34)n2)C1 [Example 262, [3-{3-[7-(5-fluoro-2-hydroxyphenyl)-1,6-naphthyridin-5-yl]-1H-pyrazol-1-yl}-1-(methylsulfonyl)azetidin-3-yl]acetonitrile]",IC50,JAK2,> 10000 nM
same,IC50,JAK3,> 10 µM
same,IC50,TYK2,242 nM
same,IC50,JAK1,> 10000 nM
"N#CCC1(n2ccc(-c3nccc4ncccc34)n2)CN(CC(F)(F)F)C1 [Example 15, {3-[3-(1,6-naphthyridin-5-yl)-1H-pyrazol-1-yl]-1-(2,2,2-trifluoroethyl)azetidin-3-yl}acetonitrile]",IC50,JAK2,> 10000 nM
same,IC50,JAK3,> 10 µM
same,IC50,TYK2,7680 nM
same,IC50,JAK1,> 10000 nM
"Cc1n[nH]cc1-c1cc2ncccc2c(-c2ccn([C@]3(CC#N)C[C@@H](C#N)C3)n2)n1 [Example 89, trans-3-(cyanomethyl)-3-{3-[7-(3-methyl-1H-pyrazol-4-yl)-1,6-naphthyridin-5-yl]-1H-pyrazol-1-yl}cyclobutanecarbonitrile]",IC50,JAK2,770 nM
same,IC50,JAK3,> 10 µM
same,IC50,TYK2,89 nM
same,IC50,JAK1,1320 nM
"N#CC[C@]1(n2ncc(-c3cc(-c4ccc(N)nn4)cc4ncccc34)n2)C[C@H](C#N)C1 [Example 401, trans-3-{4-[7-(6-aminopyridazin-3-yl)quinolin-5-yl]-2H-1,2,3-triazol-2-yl}-3-(cyanomethyl)cyclobutanecarbonitrile]",IC50,JAK2; JAK Caliper enzyme assay,369 nM
same,IC50,JAK3; JAK Caliper enzyme assay,> 10 µM
same,IC50,TYK2; JAK Caliper enzyme assay,55 nM
same,IC50,JAK1; JAK Caliper enzyme assay,3700 nM
"N#CC[C@]1(n2ncc(-c3cc(-c4cc[nH]c(=O)c4)cc4ncccc34)n2)C[C@H](C#N)C1 [Example 411, trans-3-(cyanomethyl)-3-{4-[7-(2-oxo-1,2-dihydropyridin-4-yl)quinolin-5-yl]-2H-1,2,3-triazol-2-yl}cyclobutanecarbonitrile]",IC50,JAK2; JAK Caliper enzyme assay,1690 nM
same,IC50,JAK3; JAK Caliper enzyme assay,> 10 µM
same,IC50,TYK2; JAK Caliper enzyme assay,257 nM
same,IC50,JAK1; JAK Caliper enzyme assay,> 10000 nM
"CN1CCC(n2cc(-c3cc4ncccc4c(-c4ccn(C5(CC#N)CN(CC(F)(F)F)C5)n4)n3)cn2)CC1 [Example 117, [3-(3-{7-[1-(1-methylpiperidin-4-yl)-1H-pyrazol-4-yl]-1,6-naphthyridin-5-yl}-1H-pyrazol-1-yl)-1-(2,2,2-trifluoroethyl)azetidin-3-yl]acetonitrile]",IC50,JAK2,64 nM
same,IC50,JAK3,6.96 µM
same,IC50,TYK2,88 nM
same,IC50,JAK1,1060 nM
"CS(=O)(=O)c1ccc(-c2cc(-c3cnn([C@]4(CC#N)C[C@H](C#N)C4)n3)c3cccnc3c2)nc1 [Example 368, cis-3-(cyanomethyl)-3-(4-{7-[5-(methylsulfonyl)pyridin-2-yl]quinolin-5-yl}-2H-1,2,3-triazol-2-yl)cyclobutanecarbonitrile]",IC50,JAK2,42 nM
same,IC50,JAK3,7.25 µM
same,IC50,TYK2,15 nM
same,IC50,JAK1,525 nM
"N#CC[C@]1(n2ncc(-c3cc(-c4ncc(OCCO)cn4)cc4ncccc34)n2)C[C@@H](C#N)C1 [Example 406, cis-3-(cyanomethyl)-3-(4-{7-[5-(2-hydroxyethoxy)pyrimidin-2-yl]quinolin-5-yl}-2H-1,2,3-triazol-2-yl)cyclobutanecarbonitrile]",IC50,JAK2; JAK Caliper enzyme assay,> 10000 nM
same,IC50,JAK3; JAK Caliper enzyme assay,> 10 µM
same,IC50,TYK2; JAK Caliper enzyme assay,2150 nM
same,IC50,JAK1; JAK Caliper enzyme assay,> 10000 nM
"CS(=O)(=O)N1CC(CC#N)(n2ccc(-c3nc(-c4cnco4)cc4ncccc34)n2)C1 [Example 145, [1-(methylsulfonyl)-3-{3-[7-(1,3-oxazol-5-yl)-1,6-naphthyridin-5-yl]-1H-pyrazol-1-yl}azetidin-3-yl]acetonitrile]",IC50,JAK2,1790 nM
same,IC50,JAK3,> 10 µM
same,IC50,TYK2,172 nM
same,IC50,JAK1,3290 nM
"CS(=O)(=O)N1CC(CC#N)(n2ccc(-c3nc(-c4cnc5nccn5c4)cc4ncccc34)n2)C1 [Example 165, [3-{3-[7-(imidazo[1,2-a]pyrimidin-6-yl)-1,6-naphthyridin-5-yl]-1H-pyrazol-1-yl}-1-(methylsulfonyl)azetidin-3-yl]acetonitrile]",IC50,JAK2,9440 nM
same,IC50,JAK3,> 10 µM
same,IC50,TYK2,1390 nM
same,IC50,JAK1,> 10000 nM
"CO[C@H]1C[C@](CC#N)(n2cc(-c3cc(-c4c[nH]nc4N)cc4ncccc34)cn2)C1 [Example 291, (trans-1-{4-[7-(3-amino-1H-pyrazol-4-yl)quinolin-5-yl]-1H-pyrazol-1-yl}-3-methoxycyclobutyl)acetonitrile]",IC50,JAK2,3740 nM
same,IC50,JAK3,> 10 µM
same,IC50,TYK2,343 nM
same,IC50,JAK1,8820 nM
"N#CCC1CC(CC#N)(n2ccc(-c3nc(-c4ccn[nH]4)cc4ncccc34)n2)C1 (stereo not drawn) [Example 23, 2,2′-(cis-1-{3-[7-(1H-pyrazol-5-yl)-1,6-naphthyridin-5-yl]-1H-pyrazol-1-yl}cyclobutane-1,3-diyl)diacetonitrile]",IC50,JAK2,216 nM
same,IC50,JAK3,> 10 µM
same,IC50,TYK2,15 nM
same,IC50,JAK1,324 nM
"N#CC[C@]1(n2ncc(-c3cc(-c4cccnc4N)cc4ncccc34)n2)C[C@@H](C#N)C1 [Example 362, cis-3-{4-[7-(2-aminopyridin-3-yl)quinolin-5-yl]-2H-1,2,3-triazol-2-yl}-3-(cyanomethyl)cyclobutanecarbonitrile]",IC50,JAK2,> 10000 nM
same,IC50,JAK3,> 10 µM
same,IC50,TYK2,1960 nM
same,IC50,JAK1,> 10000 nM
